{
  "source": "patent US11479529B2",
  "about": "“Compounds with antimicrobial activity” (The Hong Kong Polytechnic University, priority 2018, dated 2022)",
  "key": {"Cytotoxicity assay, A549": {"assay": "Cytotoxicity assay, A549", "type": "cell-based, human", "details": "human, A549 lung carcinoma cells", "procedure": "(§1) Cytotoxicity assay was performed as detailed previously^43 except A549 lung carcinoma and HaCaT immortalized human keratinocytes were used in this study."}, "[1]": {"assay": "Cytotoxicity assay, HaCaT", "type": "cell-based", "details": "HaCaT immortalized human keratinocytes", "procedure": "as §1"}, "A549 lung carcinoma": {"system": "A549 lung carcinoma", "assay": "Cytotoxicity assay, A549", "type": "cell-based, human", "details": "mammalian cell lines (Table 1: A549, HaCaT), compared to 5-fluorouracil", "procedure": "as §1"}, "NusB-NusE interaction": {"target": "T1, NusB-NusE interaction (Bacillus subtilis, UniProt P54520)", "T1 construct": "6xHis (N); made in house; host or cells: E. coli BL21 (DE3) pLysS", "assay": "ELISA-based inhibitory assay of NusB-NusE heterodimer formation", "type": "binding, B. subtilis", "details": "NusB coated plate, GST-tagged NusE probe; read-out: IC50, inhibition of the NusB-NusE interaction", "procedure": "Finally, to establish MC4's mode of action at the molecular level, an enzyme-linked immunosorbant assay-based inhibitory assay was performed to assess the in vitro inhibition of NusB-NusE heterodimer formation by MC4.^24 Purified NusB was used to coat the 96-well plate, and GST-tagged NusE was used as the probe. […] With the change in the phenyl acetylene group to phenols, the IC50 values of the corresponding MC4 analogues increased, while deletion of this terminal triple bond or replacing by methyl or chloride caused a reduced IC50. When p-nitrophenol was modified to o-nitrophenol, the IC50 values increased, probably because of the involvement of the phenol group in the binding interaction with NusB Y81 (Table 3).\nProtein overproduction and purification. B. subtilis NusB (wild type and mutant) and NusE-GST were overproduced from plasmids (Table 2) and purified using a similar approach to that described previously.^45 Purified proteins were dialyzed into 20 mM KH2PO4, 150 mM NaCl, 30% glycerol, pH 7.8 and stored at […].\nELISA-based assays. These assays were performed as described previously,^41 except NusB was used to coat the NUNC MaxiSorp™ 96-well plates and GST-tagged NusE used as the probe."}, "[2]": {"system": "healthcare acquired MRSA ST239", "assay": "Microdilution assay (MIC) against healthcare acquired MRSA ST239", "type": "cell-based, Staphylococcus aureus", "procedure": "(§2) The antimicrobial activity of the seven compounds against community-acquired MRSA strain USA300 were first screened. […] With a molecular weight of 266.3, MC4 has been reported to be of use only to form a metal complex dye in optical layers for optical data recording.^26 The antimicrobial activities of MC4 against a panel of representative strains of pathogens were then tested.\n(§3) Bacterial Strains and Chemicals. The following bacterial strains were used in this study for the microdilution assay: Enterococcus faecalis ATCC 29212, Klebsiella pneumonia ATCC 700603, Acinetobacter baumannii ATCC 19606, Pseudomonas aeruginosa PA01, Enterobacter cloacae ATCC 13047, E. coli ATCC 25922, Proteus vulgaris ATCC 6380, and S. aureus USA300, ATCC 25923, ATCC 29213, ST22, ST30, ST45, ST59, ST239, JE-2, BAA44. E. coli strain DH5a (Gibco BRL) was used in this study for cloning and BL21 (DE3) pLysS^23 was used for protein overproduction. 5-fluorouracil, rifampicin and other antibiotics used in the microdilution assay were purchased from SigmaAldrich. Compounds MC1-7 were purchased from MolPort.\n(§4) Antibacterial activity test. Microdilution assay was performed according to the Clinical & Laboratory Standards Institute recommendations.^42 Serial 2-fold dilutions of the tested compounds and antibiotic controls were made from 256 μg/ml to 0.5 μg/ml. DMSO was included as a negative control."}, "[3]": {"system": "community-acquired MRSA strain USA300", "assay": "Microdilution assay (MIC) against community-acquired MRSA strain USA300", "type": "cell-based", "details": "Staphylococcus aureus, read-out: minimum inhibitory concentration (MIC)", "procedure": "as §2, §3, §4"}, "NusE": {"target": "T2, NusE (Bacillus subtilis, UniProt P21471)", "T2 construct": "3C protease site + GST (C); made in house; host or cells: E. coli BL21 (DE3) pLysS", "assay": "Isothermal titration calorimetry, NusE", "type": "binding, B. subtilis"}, "[4]": {"system": "NusB variants (Y18A, D76A, and D81A)", "assay": "Isothermal titration calorimetry, NusB variants", "type": "binding, B. subtilis", "procedure": "(§5) The interaction between MC4 and NusB was also biophysically quantified. […] Further experiments will be performed to resolve the structure of NusB in complex with MC4 for target validation, as well as structure-based lead optimization.\n(§6) Isothermal calorimetric titration (ITC). ITC experiments were performed as described previously.^41 For compound testing, a 50 mM stock made up in DMSO was diluted to 500 μM in ITC buffer (50 mM KH2PO4, 150 mM NaCl, pH 7.4). All proteins were dialysed into ITC buffer and were supplemented with the same concentration of DMSO (1% v/v) to minimize buffer miss-match. MC4 was then titrated against 50 μM NusB wild type and mutants as described previously^41 using 1% DMSO in ITC buffer as the negative control."}, "[5]": {"target": "T3, B. subtilis NusB wild type protein (Bacillus subtilis, UniProt P54520)", "T3 construct": "6xHis (N); made in house; host or cells: E. coli BL21 (DE3) pLysS", "T3 sequence (P54520 whole entry)": "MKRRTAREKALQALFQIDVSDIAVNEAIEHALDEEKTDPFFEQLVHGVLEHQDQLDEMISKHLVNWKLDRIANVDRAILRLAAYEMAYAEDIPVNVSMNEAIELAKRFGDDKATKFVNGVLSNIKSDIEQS", "assay": "Isothermal titration calorimetry, NusB wild type", "type": "binding", "details": "ITC", "procedure": "as §5, §6"}, "S. aureus 25923": {"system": "S. aureus 25923", "assay": "Microdilution assay (MIC) against control strain S. aureus 25923", "type": "cell-based", "details": "Staphylococcus aureus", "procedure": "as §2, §3, §4"}, "[6]": {"system": "S. aureus ATCC 25923 cells", "assay": "DNA, protein and rRNA quantitation in treated cells", "type": "cell-based, Staphylococcus aureus", "details": "one-quarter MIC, exponential growth, versus control cells", "procedure": "The level of macromolecules in S. aureus ATCC 25923 cells during exponential growth due to MC4 treatment were analyzed.\nDNA, protein and rRNA quantitation. MC4, oxacillin and rifampicin at ¼ MIC level were added to S. aureus strain ATCC 25923 in LB medium at early log phase (OD595=0.2), which was then grown to mid-log phase (OD595==0.5). For DNA and protein quantitation, 1 ml cells were harvested and treated with 10 mg/ml lysozyme+0.5 mg/ml lysostaphin at RT for 1 hr before centrifugation at 13000 g/min for 3 min. The supernatant was discarded and cells lysed with 600 μl Nuclei Lysis Solution (Promega/Genomic DNA Purification Kit) for 5 min, followed by gentle sonication. The amount of DNA was quantified with Qubit dsDNA BR (broad range) and protein quantified with NanoOrange™ Protein Quantitation Kit (ThermoFisher). For rRNA quantitation, 1 ml culture was collected and treated with RNAProtect (Qiagen), before total RNA was extracted with an RNeasv Mini Kit (Qiagen). DNase I treatment was performed with a TURBO DNA-free Kit (ThermoFisher). The extracted RNA was subjected to Agilent 2100 analysis, and the level of major rRNA (the sum of 16S+23S rRNA) as percentage of total RNA. The values were compared across each treatment group. All experiments were repeated three times."}},
  "note": "Where “and” joins values, the source holds several entries; their conditions need not be identical. Identical values can stand only once.",
  "data": [
    {"smiles": "O=c1[nH]cc(F)c(=O)[nH]1", "note": "[5-fluorouracil, reference compound]", "values": [
      {"measurement": "CC50", "setting": "Cytotoxicity assay, A549", "value": "0.00562 ± 2e-06", "unit": "µM"},
      {"measurement": "CC50", "setting": "[1]", "value": "< 0.001", "unit": "µM"}
    ]},
    {"smiles": "C#Cc1cccc(/N=C/c2cc([N+](=O)[O-])ccc2O)c1", "note": "[MC4, (E)-2-[[(3-ethynylphenyl)imino]methyl]-4-nitrophenol]", "values": [
      {"measurement": "CC50", "setting": "Cytotoxicity assay, A549", "value": "183 ± 7.71", "unit": "µM"},
      {"measurement": "cytotoxicity against mammalian cell lines", "setting": "A549 lung carcinoma", "value": "did not show significant cytotoxicity"},
      {"measurement": "IC50", "setting": "NusB-NusE interaction", "value": "~34.7 µM and 34.7 µM"},
      {"measurement": "MIC", "setting": "[2]", "value": 16, "unit": "µg/mL"},
      {"measurement": "MIC", "setting": "[3]", "value": 64, "unit": "µg/mL"},
      {"measurement": "Binding to NusE by ITC", "setting": "NusE", "value": "could not be detected"},
      {"measurement": "CC50", "setting": "[1]", "value": "695.1 ± 5.95", "unit": "µM"},
      {"measurement": "Binding to NusB variants by ITC", "setting": "[4]", "value": "could not be detected"},
      {"measurement": "N", "setting": "[5]", "value": "0.988±0.076"},
      {"measurement": "ΔH", "setting": "[5]", "value": "-7.141 ± 0.9398", "unit": "kcal/mol"},
      {"measurement": "ΔS", "setting": "[5]", "value": "−1.81", "unit": "cal/mol/deg"},
      {"measurement": "Kd", "setting": "[5]; one-site binding mode", "value": "1.45 ± 0.55", "unit": "µM"},
      {"measurement": "MIC", "setting": "S. aureus 25923", "value": 8, "unit": "µg/mL"},
      {"measurement": "DNA level", "setting": "[6]", "value": "none of the treatment affected the DNA level"},
      {"measurement": "protein level", "setting": "[6]", "value": "significant reduction in the protein level"},
      {"measurement": "rRNA level (16S+23S)", "setting": "[6]", "value": "significant reduction in the rRNA level"}
    ]},
    {"smiles": "O=[N+]([O-])c1cccc(/C=N/c2ccccc2)c1O", "note": "[MC4-1, 2-nitro-6-[(E)-(phenylimino)methyl]phenol]", "values": [
      {"measurement": "IC50", "setting": "NusB-NusE interaction", "value": "14.4 ± 2.59", "unit": "µM"}
    ]},
    {"smiles": "O=[N+]([O-])c1ccc(O)c(C=Nc2ccccc2)c1", "note": "[MC4-4, 4-nitro-2-[(phenylimino)methyl]phenol]", "values": [
      {"measurement": "IC50", "setting": "NusB-NusE interaction", "value": "147 ± 17.9", "unit": "µM"}
    ]},
    {"smiles": "Cc1cccc(/N=C/c2cc([N+](=O)[O-])ccc2O)c1", "note": "[MC4-5, 2-{(E)-[(3-methylphenyl)imino]methyl}-4-nitrophenol]", "values": [
      {"measurement": "IC50", "setting": "NusB-NusE interaction", "value": "971 ± 11.6", "unit": "µM"}
    ]},
    {"smiles": "O=[N+]([O-])c1ccc(O)c(/C=N/c2ccc(O)cc2)c1", "note": "[MC4-6, 2-{(E)-[(4-hydroxyphenyl)imino]methyl}-4-nitrophenol]", "values": [
      {"measurement": "IC50", "setting": "NusB-NusE interaction", "value": 0.00815, "unit": "µM"}
    ]},
    {"smiles": "O=[N+]([O-])c1ccc(O)c(/C=N/c2ccc(Cl)cc2)c1", "note": "[MC4-7, 2-{(E)-[(4-chlorophenyl)imino]methyl}-4-nitrophenol]", "values": [
      {"measurement": "IC50", "setting": "NusB-NusE interaction", "value": "1639 ± 12.7", "unit": "µM"}
    ]},
    {"smiles": "O=[N+]([O-])c1ccc(O)c(/C=N/c2cccc(O)c2)c1", "note": "[MC4-8, 2-{(E)[(3-hydroxyphenyl)imino]methyl}-4-nitrophenol]", "values": [
      {"measurement": "IC50", "setting": "NusB-NusE interaction", "value": 0.00692, "unit": "µM"}
    ]},
    {"smiles": "Cc1onc(-c2ccccc2)c1C(=O)N[C@@H]1C(=O)N2[C@@H]1SC(C)(C)[C@@H]2C(=O)O", "note": "[oxacillin, reference compound]", "values": [
      {"measurement": "DNA level", "setting": "[6]", "value": "none of the treatment affected the DNA level"},
      {"measurement": "protein level", "setting": "[6]", "value": "slightly higher than those of control cells"},
      {"measurement": "rRNA level (16S+23S)", "setting": "[6]", "value": "slightly higher than those of control cells"}
    ]}
  ]
}
